Measurements reported in PMC6269910 (Molecules, 2013).

Key:
stomach = assay: Gastric-ulcerogenic effect (ulcer score); format: in vivo, mice; settings: 200 mg/kg p.o.; animals with lesions/animals
[1] = tested on: lipid peroxidation in stomach; assay: Lipid peroxidation in stomach (TBARS); format: in vivo, mice; settings: 100 mg/kg, 8 h after analgesic test
myeloperoxidase (MPO) = assay: MPO activity in liver, kidney, colon, brain; format: in vivo, mice; settings: 72 h
Experimental: MPO is an enzyme that is found predominantly in the azurophilic granules of polymorphonuclear leukocytes (PMN). […] MPO activity was measured in tissues in a procedure similar to that documented by […] et al.

[2] = tested on: carrageenan-induced hind paw edema; assay: Carrageenan-induced hind paw edema model; format: in vivo, mice
Experimental: Locally bred balb/c mice of both sexes (30-35 g) were purchased from the animal breeding laboratories of Inonu University ([…], Turkey). The animals were fed a standard pellet diet and water ad libitum in a temperature-controlled room. On the day before the treatments, food was withdrawn, but the animals were allowed free access of water. The allocation of animals to different groups was randomized, and the experiments were carried out under blind conditions. Mice used in the present study were cared for in accordance with the directory of the Inonu University Animal Care Unit, which applies the guidelines of the National Institutes of Health on laboratory animal welfare. Procedures involving animals and their care were conducted in conformity with international laws and policies and animal studies accepted by Inonu University Ethical Council (2011/A17). Test samples, suspended in a mixture of distilled water and 0.5% sodium carboxymethyl cellulose (CMC), were given orally to the animals. The control group animals received the same experimental handling as those of the test groups, except that the drug treatment was replaced with appropriate volumes of the dosing vehicle. […] For the preliminary activity screening, each test group was composed of four mice. […] Because of the daily changing circumstance, we used another control group for each experiment. For the determination of the effects on carrageenan-induced paw oedema, the modified method of Kasahara et al. was employed. One hour after the oral administration of either test sample or dosing vehicle, each mouse was injected with a freshly prepared (0.5 mg/25 μL) suspension of carrageenan (Sigma, St. Louis, MO, USA) in physiological saline (154 mM NaCl). The subplantar tissue of the right hind paw was the injection site for all mice. The contralateral paw (left hind paw) was injected with 25 μL saline solution as the internal control. […] The difference in footpad thickness between the right and left foot indicated the degree of inflammation for each mouse. The change in paw volume, either increase or decrease, was calculated and compared with the control group (dosing vehicle) and analyzed using statistical methods.

[3] = tested on: 60 human tumor cell lines; assay: NCI60 in vitro cancer screen; format: cell-based; settings: 10 µM; variety of cell lines
From the text: The selected compound N-(ethylcarbamothioyl)-4-[5-(4-methylphenyl)-3-(trifluoromethyl)-1H-pyrazol-1-yl]benzenesulfonamide (1a) was screened by the National Institutes of Health (NIH) for anticancer activity against 60 human tumor cell lines. Most of the compounds in the series of structures submitted include one or more functional groups that have been found troublesome to the development of successful drug candidates. In addition, the selection criteria guidance available at the following DTP web site: http://www.dtp.nci.nih.gov/docs/misc/common_files/guidelines.html. For NCI criteria, compounds, which reduce the growth of any one of the cell lines to approximately 32% or less, are passed on for evaluation in the full panel of cell lines over a 5-log dose range.
The methodology of the NCI60 in vitro cancer screen can be found on-line at http://dtp.nci.nih.gov/branches/btb/ivclsp.html and can be reviewed on their web site.

[4] = biological target: T1, HCV NS5B RNA dependent RNA polymerase (Hepatitis C virus genotype 1b, UniProt P26663); assay: NS5B inhibition assay (primer dependent elongation, poly rA-U12); format: biochemical; settings: read-out: Anti-NS5B Activity (% Inh., 100 µM)
T1 construct: HCV NS5B RNA dependent RNA polymerase activity
Experimental: The compounds 1a–e and 2a–e were reconstituted in DMSO as 50 mM stocks, and serially diluted in DMSO to obtain working stocks. Wedelolactone, a known inhibitor of HCV NS5B activity, was employed as a reference compound. Preliminary screening was carried out at 100 μM to identify a wider range of compounds.
All synthesized compounds were evaluated for their effect on HCV NS5B RNA dependent RNA polymerase activity in primer dependent elongation assays as previously described. Activity of NS5B in the absence of the inhibitor but containing an equivalent amount of DMSO (control reaction) was set at 100% and that in the presence of the inhibitor was quantified relative to this control.

glutathione (GSH) = assay: GSH level in liver, kidney, colon, brain; format: in vivo, mice; settings: 72 h
Experimental: Tissue samples were homogenized with ice-cold 150 mM KCl for the determination of LPO and glutathione (GSH) levels. The LPO levels were assayed by monitoring TBARS formation as described above.

[5] = tested on: superoxide dismutase (SOD); assay: SOD activity in liver, kidney, colon, brain; format: in vivo, mice; settings: 72 h
Experimental: SOD is a major antioxidant enzyme found in cells, which protect cells from oxidative stress. SOD activity in the tissue samples was measured according to the previously described method.

T1 sequence (P26663 2420-3010): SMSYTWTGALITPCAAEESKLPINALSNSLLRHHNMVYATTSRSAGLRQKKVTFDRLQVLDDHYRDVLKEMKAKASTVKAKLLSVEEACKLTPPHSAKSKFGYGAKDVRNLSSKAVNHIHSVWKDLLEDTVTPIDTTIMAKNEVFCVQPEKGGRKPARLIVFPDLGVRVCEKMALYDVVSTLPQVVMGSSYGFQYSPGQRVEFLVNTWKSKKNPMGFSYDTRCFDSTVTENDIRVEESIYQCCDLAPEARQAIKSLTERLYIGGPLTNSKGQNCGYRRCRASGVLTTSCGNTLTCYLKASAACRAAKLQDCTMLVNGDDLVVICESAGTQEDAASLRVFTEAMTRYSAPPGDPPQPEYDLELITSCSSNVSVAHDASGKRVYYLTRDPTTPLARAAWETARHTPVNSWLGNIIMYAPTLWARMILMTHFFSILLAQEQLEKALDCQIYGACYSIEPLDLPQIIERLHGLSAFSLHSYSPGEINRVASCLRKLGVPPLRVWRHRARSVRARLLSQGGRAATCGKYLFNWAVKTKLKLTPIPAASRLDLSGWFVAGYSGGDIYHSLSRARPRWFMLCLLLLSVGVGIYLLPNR

CCNC(=S)NS(=O)(=O)c1ccc(-n2nc(C(F)(F)F)cc2-c2ccc(C)cc2)cc1 [Compound 1a, N-(Ethylcarbamothioyl)-4-[5-(4-methylphenyl)-3-(trifluoromethyl)-1H-pyrazol-1-yl] benzenesulfonamide]
Ulcer score (stomach): 0/5
Lipid peroxidation [1]: 387.7 ± 12.8 nmol TBARS/g wet weight
MPO (myeloperoxidase (MPO); brain, 100 mg/kg oral): 0.73 ± 0.32 U/gtissue
MPO (myeloperoxidase (MPO); brain, 200 mg/kg oral): 1.95 ± 0.60 U/gtissue
MPO (myeloperoxidase (MPO); colon, 100 mg/kg oral): 0.27 ± 0.13 U/gtissue
MPO (myeloperoxidase (MPO); colon, 200 mg/kg oral): 0.38 ± 0.14 U/gtissue
MPO (myeloperoxidase (MPO); kidney, 100 mg/kg oral): 3.18 ± 2.66 U/g tissue
MPO (myeloperoxidase (MPO); kidney, 200 mg/kg oral): 4.59 ± 1.01 U/g tissue
MPO (myeloperoxidase (MPO); liver, 100 mg/kg oral): 0.50 ± 0.28 U/gtissue
MPO (myeloperoxidase (MPO); liver, 200 mg/kg oral): 0.15 ± 0.08 U/gtissue
Swelling in thickness ± SEM ([2]; 50 mg/kg per os, 90 min): 70.0 ± 6.5 × 10^−2 mm
percent inhibitory activity ([2]; 50 mg/kg per os, 90 min): 2.7%
Swelling in thickness ± SEM ([2]; 50 mg/kg per os, 180 min): 72.0 ± 5.1 × 10^−2 mm
percent inhibitory activity ([2]; 50 mg/kg per os, 180 min): 21.7%
Swelling in thickness ± SEM ([2]; 50 mg/kg per os, 270 min): 90.0 ± 9.3 × 10^−2 mm
percent inhibitory activity ([2]; 50 mg/kg per os, 270 min): 25.6%
Swelling in thickness ± SEM ([2]; 50 mg/kg per os, 360 min): 100.0 ± 6.5 × 10^−2 mm
percent inhibitory activity ([2]; 50 mg/kg per os, 360 min): 22.4%
Swelling in thickness ± SEM ([2]; 100 mg/kg per os, 90 min): 58.1 ± 6.6 × 10^−2 mm
percent inhibitory activity ([2]; 100 mg/kg per os, 90 min): 19.4%
Swelling in thickness ± SEM ([2]; 100 mg/kg per os, 180 min): 72.9 ± 11.9 × 10^−2 mm
percent inhibitory activity ([2]; 100 mg/kg per os, 180 min): 19.7%
Swelling in thickness ± SEM ([2]; 100 mg/kg per os, 270 min): 72.7 ± 16.7 × 10^−2 mm
percent inhibitory activity ([2]; 100 mg/kg per os, 270 min): 39.5%
Swelling in thickness ± SEM ([2]; 100 mg/kg per os, 360 min): 77.9 ± 11.7 × 10^−2 mm
percent inhibitory activity ([2]; 100 mg/kg per os, 360 min): 39.7%
Swelling in thickness ± SEM ([2]; 200 mg/kg per os, 90 min): 54.6 ± 7.9 × 10^−2 mm
percent inhibitory activity ([2]; 200 mg/kg per os, 90 min): 25.0%
Swelling in thickness ± SEM ([2]; 200 mg/kg per os, 180 min): 74.2 ± 8.2 × 10^−2 mm
percent inhibitory activity ([2]; 200 mg/kg per os, 180 min): 19.3%
Swelling in thickness ± SEM ([2]; 200 mg/kg per os, 270 min): 117.5 ± 9.8 × 10^−2 mm
percent inhibitory activity ([2]; 200 mg/kg per os, 270 min): 2.9%
Swelling in thickness ± SEM ([2]; 200 mg/kg per os, 360 min): 97.4 ± 5.6 × 10^−2 mm
percent inhibitory activity ([2]; 200 mg/kg per os, 360 min): 24.5%
anti-inflammatory activity (in words) ([2]; all doses, all measurement intervals): moderate-to-good
cell growth inhibition [3]: negligible
inhibition at 100 µM [4]: 49.4%
melting point: 215 to 218 °C
GSH (glutathione (GSH); brain, 100 mg/kg oral): 18.7 ± 5.52 µmol/g tissue
GSH (glutathione (GSH); brain, 200 mg/kg oral): 18.74 ± 3.03 µmol/g tissue
GSH (glutathione (GSH); colon, 100 mg/kg oral): 27.22 ± 2.41 µmol/g tissue
GSH (glutathione (GSH); colon, 200 mg/kg oral): 25.16 ± 2.76 µmol/g tissue
GSH (glutathione (GSH); kidney, 100 mg/kg oral): 17.02 ± 5.23 µmol/g tissue
GSH (glutathione (GSH); kidney, 200 mg/kg oral): 18.26 ± 3.28 µmol/g tissue
GSH (glutathione (GSH); liver, 100 mg/kg oral): 22.68 ± 1.20 µmol/g tissue
GSH (glutathione (GSH); liver, 200 mg/kg oral): 24.58 ± 4.47 µmol/g tissue
SOD ([5]; brain, 100 mg/kg oral): 19.17 ± 7.41 U/g tissue
SOD ([5]; brain, 200 mg/kg oral): 19.22 ± 10.76 U/g tissue
SOD ([5]; colon, 100 mg/kg oral): 16.56 ± 4.13 U/g tissue
SOD ([5]; colon, 200 mg/kg oral): 21.17 ± 4.15 U/g tissue
SOD ([5]; kidney, 100 mg/kg oral): 20.26 ± 8.71 U/g tissue
SOD ([5]; kidney, 200 mg/kg oral): 15.37 ± 7.33 U/g tissue
SOD ([5]; liver, 100 mg/kg oral): 21.15 ± 9.98 U/g tissue
SOD ([5]; liver, 200 mg/kg oral): 11.72 ± 5.10 U/g tissue
